Assay results reported in patent publication US6779468B1, “Method and pharmaceutical composition for iron delivery in hemodialysis and peritoneal dialysis patients” (priority 1997, dated 2004).
Values joined by “and” are separate entries in the source; they are usually repeats but may differ in a detail not shown here. Identical values can stand only once. “Also recorded” adds a separate entry of the source.

Columns and labels:
[1] = Phase I/II clinical study of dialysate iron in maintenance hemodialysis patients; type: in vivo, human; settings: for reticulocyte hemoglobin (Retic-Hgb): month 2
Experimental: All subjects in the study were receiving maintenance hemodialysis for end stage kidney failure, and requiring erythropoietin and intravenous iron to maintain hemoglobin in the 10-12 gm/dl range. After obtaining an informed consent, patients were enrolled and oral iron was discontinued. All patients received maintenance intravenous iron (50-100 mg every 1-2 weeks) during a 4 week long pre-treatment phase. The last two weeks of this pre-treatment period were used to establish the “Baseline” serum iron and hematological parameters. In the Treatment Phase, ten patients were dialyzed with iron containing dialysate (Dialysate-Fe group) for a period of 4 months. […] Eleven control patients (IV-Fe Group) continued to receive 50-200 mg iron intravenously every 1-2 weeks, for the entire study period of 6.5 months.
The initial doses were 50 mg elemental iron weekly.
Increased availability of iron to marrow cells may improve responsiveness to erythropoietin, thereby raising the hemoglobin and hematocrit. Hemoglobin and hematocrit were monitored every week, and in the event of improved erythropoiesis, the doses of erythropoietin were reduced by 10% every two weeks or as needed, to maintain a stable hemoglobin.
According to the National Kidney Foundation-Dialysis Outcomes Quality Initiative (NKF-DOQI) recommendations, most hemodialysis patients should be administered intravenous iron with every dialysis session or every 1-2 weeks (maintenance therapy). […] This was the basis why the control group was maintained on regular doses of intravenous iron, while oral iron was discontinued. This being the standard of care, the subjects on maintenance intravenous iron (IV-Fe Group) served as the control against the experimental group receiving dialysate iron therapy (Dialysate-Fe Group).
A random number generator was used to generate a list of 24 numbers. Odd and even numbers were assigned A or B designation respectively. A list of 23 patients was created based on the order in which consent was obtained for participation in the study. Patients were assigned to groups A or B based on their order in the list.
When a relative iron deficiency was suspected bolus doses of 100-200 mg iron were administered intravenously with each dialysis, over 1-5 consecutive dialysis sessions.
Based on the NKF-DOQI guidelines, patients in IV-Fe group were prescribed maintenance amount of intravenous iron from 25 to 100 mg/week. When a relative iron deficiency was suspected, bolus doses of 100-200 mg iron were administered intravenously with each dialysis, over 5-10 consecutive dialysis sessions.
Except for plotting of individual patient variables over time, the iron study data has been summarized prior to analysis. Descriptive analysis was performed. Most of the analysis presented here, uses the data averaged over four or six/seven week intervals. A four week interval corresponds to the length of time each dose level was used during the dose escalation phase of the study. […] (See Figures 4-21)
The baseline period, labeled month 0, included data for the four weeks immediately prior to the start of the intervention. (There was some data available for some or all the fifth week prior to the intervention, but data from this week is omitted from the formal data analysis.)
Weeks 1 to 4, when the dialysate dose of 2 μg/dl was employed, are labeled month 1, weeks 5 to 8 labeled month 2, weeks 9 to 12 labeled ‘month 3’, weeks 13 to 16 labeled month 4, weeks 17 to 20 labeled month 5, and weeks 21 to 26 (or 27) are labeled month 6.

[2] = literature reports; cited from earlier work
[3] = baseline, before treatment phase

| Compound | TIBC adjusted for the baseline values, versus IV-Fe group ([1]; at 6 months, p<0.05) | serum ferritin (mean±S.D.) [1, 3] | total iron binding capacity (TIBC, mean±S.D.) [1, 3] | hematocrit cycling ([1]; dialysate route during every dialysis session) | reticulocyte hemoglobin (Retic-Hgb) [1] | average weekly dose of intravenous iron ([1]; month 6) | patients requiring additional intravenous iron supplements ([1]; month 6) | serum ferritin (mean±S.D.) ([1]; month 6) | maintenance of hemoglobin ([1]; over a period of 6 months) | patients in whom iron balance is maintained without supplemental oral or intravenous iron ([1]; over a period of 6 months) | reduction of requirements for intravenous iron ([1]; over a period of 6 months) | average weekly dose of intravenous iron ([1]; pretreatment period (month 0, baseline), all patients on maintenance intravenous iron) | requirement for intravenous iron ([1]; p≦0.002 with 8-12 μg/dl dialysate iron) | serum Fe and transferrin saturation (at 30 minutes of peritoneal dialysis, dialysate iron 500 μg/dl, day 21, P<0.03) | time for mean serum iron and transferrin saturation to increase into the normal range (iron deficient rabbits, dialysate iron 500 μg/dl, day 21) | duration of increase in serum iron and transferrin saturation (peritoneal dialysis for a total of 2 hours) | average weekly dose of intravenous iron ([1]; pretreatment period (month 0, baseline), all patients on maintenance intravenous iron, listed as IV-Fe) | hypocalcemia / toxic effects [2] |
| --- | --- | --- | --- | --- | --- | --- | --- | --- | --- | --- | --- | --- | --- | --- | --- | --- | --- | --- |
| Ferric pyrophosphate | significantly higher | 154 ± 120 µg/L | 222.3 ± 43.8 µg/dL | abolishes hematocrit cycling | 28.4 ± 0.9 pg | 8.9 mg | 2 out of the 10 | 154 ± 120 µg/L | maintains hemoglobin without an increase in erythropoietin requirement | approximately 80% | about 80% | 68.7 mg | significantly reduced; also recorded: decline in intravenous iron requirement | significant increase | ≤ 30 min | sustained for the duration of the experiment | – | – |
| iron dextran [reference compound] | – | 261 ± 211 µg/L | 192.7 ± 48.1 µg/dL | – | 27.0 ± 1.0 pg | 56.2 mg | – | 261 ± 211 µg/L | – | – | – | – | – | – | – | – | 59.6 mg and 68.7 mg | – |
| O=P([O-])([O-])OP(=O)([O-])[O-].[Sn+2].[Sn+2] [stannous pyrophosphate] | – | – | – | – | – | – | – | – | – | – | – | – | – | – | – | – | – | hypocalcemia and immediate toxic effects |
